The record followed here is patent US8410139B2, “Prodrugs of a piperidinyl derivative as modulators of chemokine receptor activity” (Bristol-Myers Squibb Company, priority 2009, dated 2013).

Each structure is given as a SMILES string. ≈ marks a conversion by molar mass, not a printed value. Where two headings read alike, the source gives them in different places. Bounds are passed on as bounds.

A short description of series [1]: Solution stability assay (pH 1.0 and pH 7.4, 37° C.). The series is classed as physicochemical. As to conditions: conversion of the prodrug to compound 1, 37° C., read-out: Aq. Stability half-life (pH 1/7.4) Hrs (converted). How it is done:
Acetonitrile Stock Solution: Prepare an Acetonitrile Stock Solution of the prodrug by dissolving 1.5-2.0 mg of accurately weighted compound in 5.0 mL of acetonitrile in 5 mL volumetric flask.
pH 7.4 Buffer Working Solution: Prepare a pH 7.4 Buffer working Solution of drug by adding 1.5 mL of the Acetonitrile Stock Solution to 3.5 mL of stability buffer in a 20 mL scintillation vial, mix very well. Using a 3 mL syringe withdraw ˜3 mL of solution and filter using the Gelman 0.45 μm syringe filter into a clean 1.5 mL LC vial. This filtered solution will be used to evaluate the prodrug degradation throughout the course of the study. Target concentration: 90-120 μg/mL (70% Aqueous: 30% Acetonitrile)
pH 1.0 Acidic Working Solution: Prepare a pH1.0 Working Solution of drug by adding 1.5 mL of the Acetonitrile Stock Solution to 3.5 mL of stability buffer in a 20 mL scintillation vial, mix very well. Using a 3 mL syringe withdraw ˜3 mL of solution and filter using the Gelman 0.45 μm syringe filter into a clean 1.5 mL LC vial. This filtered solution will be used to evaluate the prodrug degradation throughout the course of the study. Target concentration: 90-120 μg/mL (70% Aqueous: 30% Acetonitrile)
Following the sample preparation procedure described above a single sample (n=1) is prepared for each pH condition. The samples were then placed in an HPLC autosampler maintained at 37° C. and samples were analyzed over a 24 hr period. Prodrug remaining (%) is reported relative to the initial peak area (t=0 h). In cases where a conversion to parent half-life could be calculated, a t1/2 was generated. Confirmation of the conversion to parent from the prodrug was obtained by LCMS and HPLC analysis of the final timepoint samples.
Typical LC parameters are shown below:
• HPLC System: HP1100 Series, Hewlett Packard., Heated autosampler • Analytical column. Synergi 4u Hydro C18, 4.6 mm×5.0 cm, Phenomenex • Column temperature: 40° C. • Autosampler temp: 37° C. • Flow rate: 1.0 mL/min • Injection Volume: 10 μL • Mobile Phase: A: Acetonitrile • B: 0.1% Phosphoric acid in water • Run Time: 14.0 minutes • Typical LCMS parameters are shown below: • LC-MS System: Surveyor HPLC system, ThermoFinnigan LCQ Deca XP Max (Ion trap) • Analytical column. Synergi 4u Hydro C18, 4.6 mm×5.0 cm, Phenomenex • Column temperature: 40° C. • Autosampler temp: 22° C. • Flow rate: 1.0 mL/min • Injection Volume: 5 […] • Mobile Phase: A: 95% Acetonitrile/5% 20 mM Ammonium Acetate • B: 5% Acetonitrile/95% 20 mM Ammonium Acetate • LCQ Parameters • Sheath Flow Rate: 81.64 • Aux/Sweep Flow Rate: 19.01 • Current (uA): 10.89 • Voltage (kV): 5.00 • Capillary©: 348.10 • Capillary Voltage (V): 30.44

Series [2] in a line: Thermodynamic equilibrium aqueous solubility assay. The series is classed as physicochemical. As to conditions: aqueous solvent, thermodynamic from solid, read-out: Aq. sol., mg/mL (pH). How it is done: Thermodynamic Equilibrium Aqueous Solubility Assay
The calibration standard is prepared by accurately weighing 0.5-0.7 mg of sample in 5 ml of methanol. If the material is not fully soluble in methanol, other solvents such as DMSO or mixed solvents will be used.
*The calibration standard is typically prepared fresh immediately before the start of the assay. A two-point calibration curve should be used to determine the concentration of the final solution. A serial dilution is performed on the standard solution.
The final saturated solution is prepared by adding 1.0 ml of the appropriate aqueous solvent to the remaining portion of material (˜1 mg/l ml) into a 1 dram vial. The solution is sonicated and vortexed for ˜30 seconds. The sample solution is placed on an orbiter that continually agitates the sample solutions for 15-24 hours at room temperature. The final saturated solution is then transferred to a 1.5 ml Eppendorf tube and centrifuged for ˜2 min. at 10000 rpms. The supernatant from the saturated solution is transferred to a glass HPLC vial without filtering since the 1.5 mL volume is insufficient to saturate a syringe filter. This sample preparation procedure nullifies the effects of non-specific binding to the filtering apparatus.
The standards and sample are analyzed by HPLC using either UV/Vis diode array or variable wavelength detection. Typical quantitation wavelengths are 210 or 254 nm; detection wavelength can be individually customized to optimize sensitivity. In addition to UV detection, mass spectrometry detection is recommended if available in order to confirm the identity of the HPLC-UV peak of interest.
Dilutions of aqueous test solutions are performed if HPLC-UV peak is beyond the linear portion of the standard calibration curve. Typical dilutions include 100 ul/900 ul (×10) or 500 ul/500 ul (2×), as required.
HPLC grade solvents are employed.

`CC(C)[C@@H](NC(=O)NCC(C)(C)OC(=O)CCS(=O)(=O)O)C(=O)N1CC[C@](O)(c2ccc(Cl)cc2)C(C)(C)C1` [Example 22]: the half-life in series [1] (pH 1) is 44 h; in series [1] (pH 7.4), above 22 h. For the same compound, in series [2] (pH 6.5, aqueous buffer), the solubility thermodynamic is above 7 mg/mL.

Take `CC(C)[C@@H](NC(=O)NCC(C)(C)OC(=O)OCS(=O)(=O)O)C(=O)N1CC[C@](O)(c2ccc(Cl)cc2)C(C)(C)C1` [Example 23]: the half-life is 25 h in series [1] (pH 1) and 23 h in series [1] (pH 7.4). Further, the solubility thermodynamic in series [2] (pH 6.5, aqueous buffer) is above 0.3 mg/mL.

As for `CC(C)[C@@H](NC(=O)NCC(C)(C)OC(=O)Cc1ccc(OP(=O)(O)O)cc1)C(=O)N1CC[C@](O)(c2ccc(Cl)cc2)C(C)(C)C1` [Example 24], the half-life was 77 h in series [1] (pH 1) and above 22 h in series [1] (pH 7.4). Also, in series [2] (pH 6.5, aqueous buffer), the solubility thermodynamic amounted to 1.1 mg/mL (≈ 1650 µM).

For the compound `CC(C)[C@@H](NC(=O)NCC(C)(C)O)C(=O)N1CC[C@](OCOC(=O)[C@@H](C)O)(c2ccc(Cl)cc2)C(C)(C)C1` [Example 25], the half-life in series [1] (pH 1) was 16.6 h; in series [1] (pH 7.4), 73 h. Also, the solubility thermodynamic in series [2] (pH 7.4, aqueous buffer) is above 0.32 mg/mL.

In the case of `CC(O)C(=O)OCO[C@]1(c2ccc(Cl)cc2)CCN(C(=O)[C@H](NC(=O)NCC(C)(C)O)C(C)C)CC1(C)C` (stereo partly drawn) [Example 27], the values for the half-life in series [1] (pH 1) and in series [1] (pH 7.4) were 36 h and above 22 h, respectively. Also, the solubility thermodynamic in series [2] (pH 6.5, aqueous buffer) is 0.5 mg/mL (≈ 899 µM).

As for `CC(C)[C@@H](NC(=O)NCC(C)(C)O)C(=O)N1CC[C@](OCOP(=O)(O)O)(c2ccc(Cl)cc2)C(C)(C)C1` [Example 28], the half-life in series [1] (pH 1) is 1.4 h; in series [1] (pH 7.4) it was above 22 h. Moreover, in series [2] (pH 6.5, aqueous buffer), the solubility thermodynamic came out at 7.1 mg/mL (≈ 12600 µM).

Take `CC(C)[C@@H](NC(=O)NCC(C)(C)OC(=O)CCOP(=O)(O)O)C(=O)N1CC[C@](O)(c2ccc(Cl)cc2)C(C)(C)C1` [Example 29]: the figures for the half-life in series [1] (pH 1) and in series [1] (pH 7.4) were 81 h and above 22 h, respectively. The solubility thermodynamic in series [2] (pH 6.5, aqueous buffer) was determined as 4.8 mg/mL (≈ 7920 µM).

As to `CC(O)C(=O)OC(C)(C)CNC(=O)N[C@@H](C(=O)N1CC[C@](O)(c2ccc(Cl)cc2)C(C)(C)C1)C(C)C` (stereo partly drawn) [Example 30], the half-life in series [1] (pH 1) is 33 h; in series [1] (pH 7.4), above 22 h. Further, the solubility thermodynamic in series [2] (pH 6.5, aqueous buffer) turned out to be 0.31 mg/mL (≈ 589 µM).

With `CC(OP(=O)(O)O)C(=O)OC(C)(C)CNC(=O)N[C@@H](C(=O)N1CC[C@](O)(c2ccc(Cl)cc2)C(C)(C)C1)C(C)C` (stereo partly drawn) [Example 31], the half-life in series [1] (pH 1) was 61 h; in series [1] (pH 7.4) it was above 22 h. Also, in series [2] (pH 6.5, aqueous buffer), the solubility thermodynamic was above 3.3 mg/mL.

With `CC(C)[C@@H](NC(=O)NCC(C)(C)OC(=O)C(N)CS(=O)(=O)O)C(=O)N1CC[C@](O)(c2ccc(Cl)cc2)C(C)(C)C1` (stereo partly drawn) [Example 32], the half-life in series [1] (pH 1) and in series [1] (pH 7.4) was above 22 h each time. Also, the solubility thermodynamic in series [2] (pH 6.5, aqueous buffer) was found to be 1.12 mg/mL (≈ 1850 µM).

In the case of `CCC(O)CC(=O)OCOC(=O)OC(C)(C)CNC(=O)N[C@@H](C(=O)N1CC[C@](O)(c2ccc(Cl)cc2)C(C)(C)C1)C(C)C` (stereo partly drawn) [Example 33], the half-life in series [1] (pH 1) and in series [1] (pH 7.4) was above 22 h each time. Moreover, in series [2] (pH 6.5, aqueous buffer), the solubility thermodynamic was above 1.6 mg/mL.

Take `CC(C)[C@@H](NC(=O)NCC(C)(C)OC(=O)OCOC(=O)CS(=O)(=O)O)C(=O)N1CC[C@](O)(c2ccc(Cl)cc2)C(C)(C)C1` [Example 34]: the half-life in series [1] (pH 1) was 47 h; in series [1] (pH 7.4) it was above 22 h. In addition, in series [2] (pH 6.5, aqueous buffer), the solubility thermodynamic is above 0.18 mg/mL.

`CC(O)COC(=O)OC(C)(C)CNC(=O)N[C@@H](C(=O)N1CC[C@](O)(c2ccc(Cl)cc2)C(C)(C)C1)C(C)C` (stereo partly drawn) [Example 35]: the half-life in series [1] (pH 1) is 100 h; in series [1] (pH 7.4) it was 30.3 h. Also, the solubility thermodynamic in series [2] (pH 6.5, aqueous buffer) was found to be 0.18 mg/mL (≈ 324 µM).

As for `CC(COC(=O)OC(C)(C)CNC(=O)N[C@@H](C(=O)N1CC[C@](O)(c2ccc(Cl)cc2)C(C)(C)C1)C(C)C)OP(=O)(O)O` (stereo partly drawn) [Example 36], the half-life in series [1] (pH 1) is 97 h; in series [1] (pH 7.4), above 22 h. Also, the solubility thermodynamic in series [2] (pH 6.5, aqueous buffer) was above 1.2 mg/mL.
